Results as given in patent US20250197389A1, “NITROGEN-CONTAINING HETEROCYCLIC COMPOUND” (SHANGHAI SHIJIANG BIOTECHNOLOGY CO., LTD, priority 2022, published 2025).

Tests used:
[1] = tested on: mPTP-inactive Daoy cell; test: Inhibitory effect on mPTP-inactive Daoy cell (PPIF shRNA; Promega CellTiter-Glo, intracellular ATP); assay type: cell-based, human; details: Daoy cell transfected with virus vector carrying PPIF shRNA
Description: The activity of mitochondria permeability transition pore (mPTP) was regulated by the PPIF protein. […] PPIF protein activity was restricted by the expression level of PPIF protein in cell.

[2] = tested on: mPTP-active Daoy cell; test: Inhibitory effect on mPTP-active Daoy cell (Promega CellTiter-Glo, intracellular ATP); assay type: cell-based, human; details: Daoy cell transfected with empty virus vector without PPIF shRNA

Row | Compound | IC50 ([1]; Homo sapiens, Daoy) | IC50 ([2]; Homo sapiens, Daoy) | IC50 [1] | IC50 [2]
1 | C=CCOc1c(OC)ccc2c1C(C(Cl)(Cl)Cl)N1CCc3cc4c(cc3C1=C2)OCO4 (centres unmarked) [AB35534] | 1.28 µM | 3.92 µM | – | –
2 | COc1ccc2c(c1N1CCC(NC(=O)OC(C)(C)C)CC1)C(C(Cl)(Cl)Cl)N1CCc3cc4c(cc3C1=C2)OCO4 (centres unmarked) [AB35465] | 2.68 µM | 5.43 µM | – | –
3 | COc1ccc2c(c1OCCCCCCCl)C(C)N1CCc3cc4c(cc3C1=C2)OCO4 (centres unmarked) [AB31888] | 2.68 µM | 5.46 µM | – | –
4 | CCCCCCC1=C2c3cc4c(cc3CCN2C(C2CCCC2)c2c1ccc(OC)c2OC)OCO4 (centres unmarked) [AB35489] | 0.79 µM | 1.68 µM | – | –
5 | COc1ccc2c(c1OCCCN1CCCCC1)C(C)N1CCc3cc4c(cc3C1=C2)OCO4 (centres unmarked) [AB35442] | 11.4 µM | 10.7 µM | – | –
6 | COc1ccc2c(c1OCCCCCCNC(=O)OC(C)(C)C)C(C)N1CCc3cc4c(cc3C1=C2)OCO4 (centres unmarked) [AB35415] | 2.26 µM | 4.79 µM | – | –
7 | COc1ccc2c(c1N1CCN(C)CC1)C(C1CCCC1)N1CCc3cc4c(cc3C1=C2)OCO4 (centres unmarked) [AB35519] | – | – | 6.03 µM | 13.6 µM
8 | CCC(CC)COc1c(OC)ccc2c1C(C(Cl)(Cl)Cl)N1CCc3cc4c(cc3C1=C2)OCO4 (centres unmarked) [AB35521] | 1.03 µM | 2.4 µM | – | –
9 | CCCC1=C2c3cc4c(cc3CCN2C(C(Cl)(Cl)Cl)c2c1ccc(OC)c2OC)OCO4 (centres unmarked) [AB35492] | 1.34 µM | 3.78 µM | – | –
10 | C1=C2c3cc4c(cc3CCN2Cc2cc3c(cc21)OCO3)OCO4 [AB36428] | 0.4 µM | 0.92 µM | – | –
11 | [2H]C([2H])([2H])Oc1c(OC)ccc2c1C([2H])(C1CCCC1)N1CCc3cc4c(cc3C1=C2)OCO4 (centres unmarked) [AB36509] | 0.45 µM | 2.12 µM | – | –
12 | CCCC1=C2c3cc4c(cc3CCN2C(C2CCCC2)c2c1ccc(OC)c2OC)OCO4 (centres unmarked) [AB35504] | 4.25 µM | 10.6 µM | – | –
13 | [2H]C1c2c(ccc(OC)c2OC)C=C2c3cc4c(cc3CC([2H])([2H])N21)OCO4 (centres unmarked) [AB36477] | 1.32 µM | 2.54 µM | – | –
14 | COc1ccc2c(c1OCCN1CCCCC1)C(C(Cl)(Cl)Cl)N1CCc3cc4c(cc3C1=C2)OCO4 (centres unmarked) [AB35420] | 4.59 µM | 9.55 µM | – | –
15 | CC1=C2c3cc4c(cc3CCN2C(C(Cl)(Cl)Cl)c2c1ccc1c2OCO1)OCO4 (centres unmarked) [AB36442] | 29.2 µM | 29.9 µM | – | –
16 | COc1ccc2c(c1OC)CN1CCc3cc4c(cc3C1=C2Cc1ccc(OC(F)(F)F)cc1)OCO4 [AB31866] | 3.38 µM | 6.78 µM | – | –
17 | COc1ccc2c(c1OCCN(C)C)C(C(Cl)(Cl)Cl)N1CCc3cc4c(cc3C1=C2)OCO4 (centres unmarked) [AB35446] | 17.6 µM | 16.2 µM | – | –
18 | COc1ccc2c(c1OCCCCCl)C(C(Cl)(Cl)Cl)N1CCc3cc4c(cc3C1=C2)OCO4 (centres unmarked) [AB35496] | 5.28 µM | 12.3 µM | – | –
19 | COc1ccc2c(c1OC)C(C1CCCC1)N1CCc3cc4c(cc3C1=C2CCCc1ccccc1)OCO4 (centres unmarked) [AB35436] | 2.28 µM | 4.8 µM | – | –
20 | COc1ccc2c(c1OCCNC(=O)OC(C)(C)C)C(C(Cl)(Cl)Cl)N1CCc3cc4c(cc3C1=C2)OCO4 (centres unmarked) [AB35416] | 5.11 µM | 10.6 µM | – | –
21 | COc1ccc2c(c1OC)C(C1CCCCC1=O)N1CCc3cc4c(cc3C1=C2)OCO4 (centres unmarked) [AB36525] | 1.65 µM | 1.5 µM | – | –
22 | COc1ccc2c(c1OC)C(C1CCCC1)N1CCc3cc4c(cc3C1=C2CCc1ccccc1)OCO4 (centres unmarked) [AB35448] | 1.72 µM | 3.53 µM | – | –

Row | Compound | IC50 ([1]; Homo sapiens, Daoy) | IC50 ([2]; Homo sapiens, Daoy) | IC50 [1] | IC50 [2]
23 | COc1ccc2c(c1OC)C(=C(Cl)Cl)N1CCc3cc4c(cc3C1=C2)OCO4 [AB36512] | 7.09 µM | 6.42 µM | – | –
24 | COc1ccc2c(c1OCCCc1ccccc1)C(C(Cl)(Cl)Cl)N1CCc3cc4c(cc3C1=C2)OCO4 (centres unmarked) [AB35525] | 0.7 µM | 2.48 µM | – | –
25 | COc1ccc2c(c1OCCCF)C(C(Cl)(Cl)Cl)N1CCc3cc4c(cc3C1=C2)OCO4 (centres unmarked) [AB35478] | 1.51 µM | 3.78 µM | – | –
26 | COc1ccc2c(c1OC)C(C1CCCC1)N1CCc3cc4c(cc3C1=C2Cc1ccc(C(C)C)cc1)OCO4 (centres unmarked) [AB35460] | 0.78 µM | 1.96 µM | – | –
27 | COc1ccc2c(c1OCCCCl)C(C1CCC1)N1CCc3cc4c(cc3C1=C2)OCO4 (centres unmarked) [AB35490] | 3.76 µM | 10.6 µM | – | –
28 | COc1ccc2c(c1OCCN1CCCCC1)C(C)N1CCc3cc4c(cc3C1=C2)OCO4 (centres unmarked) [AB35443] | 31 µM | 30 µM | – | –
29 | COc1ccc2c(c1N1CCN(C)CC1)C(C(Cl)(Cl)Cl)N1CCc3cc4c(cc3C1=C2)OCO4 (centres unmarked) [AB35518] | 3.08 µM | 8.25 µM | – | –
30 | COc1ccc2c(c1OCCCCOc1ccccc1)C(C)N1CCc3cc4c(cc3C1=C2)OCO4 (centres unmarked) [AB31881] | 2.12 µM | 4.34 µM | – | –
31 | COc1c(OCCCCl)ccc2c1C(C1CCCC1)N1CCc3cc4c(cc3C1=C2)OCO4 (centres unmarked) [AB36474] | 1.39 µM | 4.26 µM | – | –
32 | COc1ccc2c(c1OCCCCCCNC(=O)OC(C)(C)C)C(C(Cl)(Cl)Cl)N1CCc3cc4c(cc3C1=C2)OCO4 (centres unmarked) [AB35407] | 1.34 µM | 2.83 µM | – | –
33 | COc1ccc2c(c1N1CCCCCC1)CN1CCc3cc4c(cc3C1=C2)OCO4 [AB36493] | 0.35 µM | 1.34 µM | – | –
34 | COc1ccc2c(c1N1CCC(C)CC1)C(C(Cl)(Cl)Cl)N1CCc3cc4c(cc3C1=C2)OCO4 (centres unmarked) [AB35453] | 0.43 µM | 1.23 µM | – | –
35 | COc1ccc2c(c1NCCc1ccccc1)C(C1CCCC1)N1CCc3cc4c(cc3C1=C2)OCO4 (centres unmarked) [AB35457] | 1.52 µM | 3.25 µM | – | –
36 | COc1ccc2c(c1OC)C(C(Cl)(Cl)Cl)N1CCc3cc4c(cc3C1=C2CCc1ccccc1)OCO4 (centres unmarked) [AB35444] | 3.33 µM | 6.85 µM | – | –
37 | COc1ccc2c(c1OCCCBr)CN1CCc3cc4c(cc3C1C2)OCO4 (centres unmarked) [AB31878] | 11 µM | 10.4 µM | – | –
38 | CCCCC1=C2c3cc4c(cc3CCN2C(C(Cl)(Cl)Cl)c2c1ccc(OC)c2OC)OCO4 (centres unmarked) [AB35502] | 2.97 µM | 6.14 µM | – | –
39 | CCCCN1CCN(c2c(OC)ccc3c2C(C(Cl)(Cl)Cl)N2CCc4cc5c(cc4C2=C3)OCO5)CC1 (centres unmarked) [AB35445] | 6.37 µM | 12.1 µM | – | –
40 | ClC(Cl)(Cl)C1c2c(ccc3c2OCO3)C(CCCc2ccccc2)=C2c3cc4c(cc3CCN21)OCO4 (centres unmarked) [AB35428] | 5.61 µM | 12.9 µM | – | –
41 | CCCCCCC1c2c(ccc(OC)c2OC)C=C2c3cc4c(cc3CCN21)OCCO4 (centres unmarked) [AB31880] | 1.13 µM | 2.93 µM | – | –
42 | COc1ccc2c(c1OCCBr)CN1CCc3cc4c(cc3C1=C2)OCO4 [AB36403] | 0.54 µM | 1.66 µM | – | –
43 | COc1ccc2c(c1N1CCN(C)CC1)C(C1CCCC1)N1CCc3cc4c(cc3C1=C2)OCO4 (centres unmarked) [AB35510] | – | – | 0.29 µM | 0.83 µM
44 | CCCC1=C2c3cc4c(cc3CCN2C(C(Cl)(Cl)Cl)c2c1ccc1c2OCO1)OCO4 (centres unmarked) [AB36427] | 4.3 µM | 11.9 µM | – | –

Row | Compound | IC50 ([1]; Homo sapiens, Daoy) | IC50 ([2]; Homo sapiens, Daoy) | IC50 [1] | IC50 [2]
45 | [2H]C1([2H])c2c(ccc(OC)c2OC)C=C2c3cc4c(cc3CCN21)OCO4 [AB36476] | – | – | 1.1 µM | 2.4 µM
46 | COc1ccc2c(c1OCCCCc1ccccc1)C(C(Cl)(Cl)Cl)N1CCc3cc4c(cc3C1=C2)OCO4 (centres unmarked) [AB35535] | 0.18 µM | 0.59 µM | – | –
47 | COc1ccc2c(c1OCCCCNC(=O)OC(C)(C)C)C(C(Cl)(Cl)Cl)N1CCc3cc4c(cc3C1=C2)OCO4 (centres unmarked) [AB35423] | – | – | 2.36 µM | 4.82 µM
48 | COc1ccc2c(c1Cl)CN1CCc3cc4c(cc3C1=C2)OCO4 [AB36450] | 2.23 µM | 5.12 µM | – | –
49 | COc1ccc2c(c1OC/C=C(\C)CCC=C(C)C)C(C(Cl)(Cl)Cl)N1CCc3cc4c(cc3C1=C2)OCO4 (centres unmarked) [AB35405] | 1.21 µM | 2.68 µM | – | –
50 | ClC(Cl)(Cl)C1c2c(ccc3c2OCO3)C=C2c3cc4c(cc3CCN21)OCO4 (centres unmarked) [AB35421] | 24.9 µM | > 50 µM | – | –
51 | COc1ccc2c(c1OC/C=C(\C)CCC=C(C)C)C(C1CCCC1)N1CCc3cc4c(cc3C1=C2)OCO4 (centres unmarked) [AB35438] | 0.84 µM | 1.86 µM | – | –
52 | CCCOc1c(OC)ccc2c1CN1CCc3cc4c(cc3C1=C2)OCO4 [AB35536] | 0.4 µM | 1.3 µM | – | –
53 | COc1ccc2c(c1OCCCCOc1ccccc1)C(C(Cl)(Cl)Cl)N1CCc3cc4c(cc3C1=C2)OCO4 (centres unmarked) [AB35476] | 1.08 µM | 2.35 µM | – | –
54 | [2H]C([2H])([2H])Oc1c(OC)ccc2c1C(C1CCCC1)N1CCc3cc4c(cc3C1=C2)OCO4 (centres unmarked) [AB36501] | 3.43 µM | 12.9 µM | – | –
55 | CC1c2c(ccc3c2OCO3)C=C2c3cc4c(cc3CCN21)OCO4 (centres unmarked) [AB35413] | 6.87 µM | 13.3 µM | – | –
56 | COc1ccc2c(c1OC)C(C1CCCC1)N1CCc3cc4c(cc3C1=C2CCCCCCBr)OCO4 (centres unmarked) [AB35523] | 1.39 µM | 3.22 µM | – | –
57 | COc1ccc2c(c1OC)C(C(Cl)(Cl)Cl)N1CCc3cc4c(cc3C1=C2CCCc1ccccc1)OCO4 (centres unmarked) [AB35417] | 1.61 µM | 3.62 µM | – | –
58 | CCC1=C2c3cc4c(cc3CCN2C(C(Cl)(Cl)Cl)c2c1ccc1c2OCO1)OCO4 (centres unmarked) [AB36426] | 35 µM | 30.9 µM | – | –
59 | C1=C2c3cc4c(cc3CCN2C(C2CCCC2)c2c1ccc1c2OCO1)OCO4 (centres unmarked) [AB36423] | 2.02 µM | 6.76 µM | – | –
60 | COc1ccc2c(c1N1CCC(Cl)CC1)CN1CCc3cc4c(cc3C1=C2)OCO4 [AB35550] | 2.05 µM | 6.36 µM | – | –
61 | COc1ccc2c(c1OCCCCN)C(C)N1CCc3cc4c(cc3C1=C2)OCO4 (centres unmarked) [AB35429] | 2.23 µM | 5.28 µM | – | –
62 | CCCCCC1=C2c3cc4c(cc3CCN2C(C2CCCC2)c2c1ccc(OC)c2OC)OCO4 (centres unmarked) [AB35522] | 1.34 µM | 3.95 µM | – | –
63 | COc1ccc2c(c1OCCF)CN1CCc3cc4c(cc3C1=C2)OCO4 [AB35599] | 2.43 µM | 5.41 µM | – | –
64 | CCCCCC1=C2c3cc4c(cc3CCN2C(C)c2c1ccc(OC)c2OC)OCO4 (centres unmarked) [AB35422] | 2.59 µM | 5.27 µM | – | –
